Source: patent US11203591B2, “Substituted 6-azabenzimidazole compounds” (Gilead Sciences, Inc., priority 2018, dated 2021)

Target: human HPK1 (MAP4K1) (Homo sapiens (Human), UniProt Q92918)
Assay: HPK1 IC50 Assay (TR-FRET peptide phosphorylation)
Assay type: biochemical
Summary of the method: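 Readout: TR-FRET (665 nm/620 nm) after EDTA stop, detecting STK S1 peptide (1 μM) phosphorylation by 0.15 nM HPK1 kinase domain, ATP-pre-activated, at 10 μM ATP over 3 h, 25° C, pH 7.0. IC50s from four-parameter variable-slope fits, normalized to staurosporine and DMSO, averaged geometrically.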

[1] = recombinant HPK1 kinase domain 0.15 nM, 10 μM ATP, 1 μM STK S1 peptide, geometric mean of multiple experiments

Chain of human HPK1 (MAP4K1) (Q92918 17-274): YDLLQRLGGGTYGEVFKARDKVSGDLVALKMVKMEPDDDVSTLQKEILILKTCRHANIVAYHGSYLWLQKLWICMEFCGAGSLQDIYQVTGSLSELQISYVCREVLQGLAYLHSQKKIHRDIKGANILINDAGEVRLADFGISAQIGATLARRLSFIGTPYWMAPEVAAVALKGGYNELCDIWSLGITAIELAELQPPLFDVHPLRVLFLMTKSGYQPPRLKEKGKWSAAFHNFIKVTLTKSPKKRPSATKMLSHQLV

Structure (SMILES) | IC50 [1] | IC50 (0.15 nM HPK1, 10 μM ATP, 1 μM STK S1 peptide substrate, geometric mean)
CNC(=O)c1cc(Nc2nc(-c3ccc4c(c3)N([C@H]3C[C@@H](N5CCC[C@@H](F)C5)C3)C(=O)C4(C)C)cc3ncn(C(C)C)c23)ccc1C [Example 106] | 0.07 nM | 
CNC(=O)c1cc(Nc2nc(-c3ccc4c(c3)N([C@H]3C[C@@H](N5CCC(C)(C)C5)C3)C(=O)C43CCN(C(C)=O)CC3)cc3ncn(C4CC4)c23)ccc1C [Example 159] | 0.1 nM | 
CC(C)n1cnc2cc(-c3ccc4c(c3)N([C@H]3C[C@@](C)(N5CCCCC5)C3)C(=O)C4(C)C)nc(Nc3cc(C(=O)NC4(CF)CC4)c(Cl)c(F)c3F)c21 [Example 292, 2-chloro-5-((6-(3,3-dimethyl-1-((1s,3s)-3-methyl-3-(piperidin-1-yl)cyclobutyl)-2-oxoindolin-6-yl)-3-isopropyl-3H-imidazo[4,5-c]pyridin-4-yl)amino)-3,4-difluoro-N-(1-(fluoromethyl)cyclopropyl)benzamide] |  | 0.07 nM
CC[C@H](C)n1cnc2cc(-c3ccc4c(c3)N([C@H]3C[C@@H](N5CC[C@@H](F)C5)C3)C(=O)C4(C)C)nc(Nc3cc(C(=O)NC)c(C)cc3F)c21 [Example 109] | 0.3 nM | 
CNC(=O)c1cc(Nc2nc(-c3ccc4c(c3)N([C@H]3C[C@@H](N5CCCCC5)C3)C(=O)C43CCN(C(=O)C(C)(C)C)CC3)cc3ncn(C4CC4)c23)ccc1C [Example 98] | 0.09 nM | 
Cc1cc(F)c(Nc2nc(-c3ccc4c(c3)N([C@H]3C[C@@H](N5CCCCC5)C3)C(=O)C43CCN(C(=O)C(C)(C)O)CC3)cc3ncn(C(C)C)c23)cc1C(=O)NC(C)C [Example 55] | 0.2 nM | 
CNC(=O)c1cc(Nc2nc(-c3cnc4c(c3)N([C@H]3C[C@@H](N5CCCCC5)C3)C(=O)C4(C)C)cc3ncn(C(C)C)c23)ccc1C [Example 18] | 0.4 nM | 
Cc1cc(F)c(Nc2nc(-c3ccc4c(c3)N([C@H]3C[C@@](C)(N5CCCCC5)C3)C(=O)C4(C)C)cc3ncn(C(C)C)c23)cc1C(=O)NC1(C(F)F)CC1 [Example 235, N-(1-(difluoromethyl)cyclopropyl)-5-((6-(3,3-dimethyl-1-((1s,3s)-3-methyl-3-(piperidin-1-yl)cyclobutyl)-2-oxoindolin-6-yl)-3-isopropyl-3H-imidazo[4,5-c]pyridin-4-yl)amino)-4-fluoro-2-methylbenzamide] | 0.1 nM | 
Cc1c(C(=O)NCC(F)F)cc(Nc2nc(-c3cnc4c(c3)N([C@H]3C[C@@](C)(N5CCCCC5)C3)C(=O)C4(C)C)cc3ncn(C(C)C)c23)c(F)c1F [Example 217, N-(2,2-Difluoroethyl)-5-((6-(3,3-dimethyl-1-((1s,3s)-3-methyl-3-(piperidin-1-yl)cyclobutyl)-2-oxo-2,3-dihydro-1H-pyrrolo[3,2-b]pyridin-6-yl)-3-isopropyl-3H-imidazo[4,5-c]pyridin-4-yl)amino)-3,4-difluoro-2-methylbenzamide] | 0.06 nM | 
CCNC(=O)c1cc(Nc2nc(-c3ccc4c(c3)N([C@H]3C[C@@H](N5CCCCC5)C3)C(=O)C43CN(C(C)=O)C3)cc3ncn(C(C)C)c23)c(F)cc1C [Example 178] | 0.3 nM | 
CC[C@H](C)n1cnc2cc(-c3ccc4c(c3)N([C@H]3C[C@@H](N5CCCCC5)C3)C(=O)C43CCN(C(=O)OC)CC3)nc(Nc3ccc(C)c(C(=O)NC)c3)c21 [Example 169] | 0.1 nM | 
CC(C)n1cnc2cc(-c3cnc4c(c3)N([C@H]3C[C@@](C)(N5CC6CC6C5)C3)C(=O)C4(C)C)nc(Nc3cc(C(=O)NC4(C(F)F)CC4)c(Cl)c(F)c3F)c21 (stereo partly shown) [Example 234, 5-((6-(1-((1s,3s)-3-(3-Azabicyclo[3.1.0]hexan-3-yl)-3-methylcyclobutyl)-3,3-dimethyl-2-oxo-2,3-dihydro-1H-pyrrolo[3,2-b]pyridin-6-yl)-3-isopropyl-3H-imidazo[4,5-c]pyridin-4-yl)amino)-2-chloro-N-(1-(difluoromethyl)cyclopropyl)-3,4-difluorobenzamide] | 0.3 nM | 
Cc1ccc(Nc2nc(-c3ccc4c(c3)N([C@H]3C[C@@H](N5CCCCC5)C3)C(=O)C4(C)C)cc3ncn(C(C)C)c23)cc1C(=O)NCC(C)(F)F [Example 28] | 0.1 nM | 
